Like-named read-outs stand apart in the source and are kept apart here. Non-standard residues stand in square brackets, D forms with d. Residues, ends and D or L forms follow the SMILES beside them. *: point of attachment. Dolaproine = CO[C@@H]([C@@H]1CCCN1)[C@@H](C)C(=O)O; Dil = CC[C@H](C)[C@H](NC)[C@@H](CC(=O)O)OC; X1 = C[C@@H](N*)[C@@H](O)c1ccccc1; NMeV = CN[C@H](C(=O)O)C(C)C

The values below come from patent publication US8288352B2, “Auristatins having an aminobenzoic acid unit at the N terminus” (priority 2004, dated 2012).

Test [1] deals with H3396 human breast carcinoma. Description: In vitro cytotoxicity (alamarBlue) on H3396. It counts as cell-based. Particulars: read-out: IC50 values. As to the method:
(§1) Table 6 summarizes cytotoxic activity of MMAF, 100, 103, 107 on H3396 human breast carcinoma and Karpas-299 anaplastic large cell lymphoma cell lines assayed. To evaluate the cytotoxicity of Compounds 100, 103, and 107, cells were seeded at approximately 10,000 per well in 150 μl of culture medium containing graded doses of Compounds 100, 103, and 107 in quadruplicates at the initiation of assay. Cytotoxicity assays were usually carried out for 96 hours. Fifty μl of the alamarBlue™ dye was added to each well during the last 4 to 6 hours of the incubation to assess viable cells at the end of culture. Dye reduction was determined by fluorescence spectrometry using the excitation and emission wavelengths of 535 nm and 590 nm, respectively. For analysis, the extent of alamarBlue™ reduction by the treated cells was compared to that of the untreated control cells.
(In general: Alamar Blue is a resazurin reagent that responds to reducing activity.)

Test [2] deals with Karpas-299 anaplastic large cell lymphoma cell line (CD30+). In words: In vitro cytotoxicity (alamarBlue) on Karpas 299. In kind it is cell-based, human. As to the method:
as §1

Setting [3] is: Homo sapiens, KARPAS-299, 96 h, read-out: IC50 values.
[4] abbreviates: karpas 299, 96 hours, alamarBlue, read-out: IC50 values.

For `CC[C@H](C)[C@@H]([C@@H](CC(=O)N1CCC[C@H]1[C@H](OC)[C@@H](C)C(=O)N[C@@H](Cc1ccccc1)C(=O)OC(C)(C)C)OC)N(C)C(=O)[C@@H](NC(=O)c1ccc(N)cc1)C(C)C` [Compound 100, 4-Abz-Val-Dil-Dap-Phe-OtBu], the IC50 (usually the midpoint of a concentration-inhibition curve) in test [1] (Homo sapiens, H3396, 96 h) came to 17.8 nM; in test [2] (setting [3]), 1.8 nM. Taken in the same sequence, the figures for `CC[C@H](C)[C@@H]([C@@H](CC(=O)N1CCC[C@H]1[C@H](OC)[C@@H](C)C(=O)N[C@@H](Cc1ccccc1)C(=O)O)OC)N(C)C(=O)[C@@H](NC(=O)c1ccc(N)cc1)C(C)C` [Compound 103, 4-Abz-Val-Dil-Dap-Phe] were more than 100 nM and 43 nM. For `CC[C@H](C)[C@@H]([C@@H](CC(=O)N1CCC[C@H]1[C@H](OC)[C@@H](C)C(=O)N[C@@H](Cc1ccccc1)C(=O)OC)OC)N(C)C(=O)[C@@H](NC(=O)c1ccc(N)cc1)C(C)C` [Compound 107, 4-Abz-Val-Dil-Dap-Phe-OMe], in that order: 0.003 nM and 0.12 nM. Take `CC[C@H](C)[C@@H]([C@@H](CC(=O)N1CCC[C@H]1[C@H](OC)[C@@H](C)C(=O)N[C@H](C)[C@@H](O)c1ccccc1)OC)N(C)C(=O)[C@@H](NC(=O)[C@@H](NC)C(C)C)C(C)C` [MMAE, mono-methyl auristatin E, reference compound] (H-[NMeV]V[Dil][Dolaproine]-X1): the IC50 in test [1] (H3396, 96 hours, alamarBlue) was determined as 0.8 nM; in test [2] (setting [4]) it was 0.13 nM.

Consider `CC[C@H](C)[C@@H]([C@@H](CC(=O)N1CCC[C@H]1[C@H](OC)[C@@H](C)C(=O)N[C@@H](Cc1ccccc1)C(=O)O)OC)N(C)C(=O)[C@@H](NC(=O)[C@@H](NC)C(C)C)C(C)C` [MMAF, N-methylvaline-valine-dolaisoleuine-dolaproine-phenylalanine, reference compound] (H-[NMeV]V[Dil][Dolaproine]F-OH), for which the IC50 in test [1] (H3396, 96 hours, alamarBlue) was 104 nM; in test [2] (setting [4]), 130 nM. “cAC10-vc-MMAF: cAC10 Conjugate with Val-Cit linker and MMAF, average 4 drugs per antibody [reference compound]”: in test [2] (cAC10 conjugates, all 4 drugs/Ab, CD30+ cell line Karpas 299), the half-inhibitory concentration (IC50) was determined as 0.75 ng/mL.
